These results are taken from patent US20090035306A1 (KALYPSYS, INC., priority 2006, published 2009).

The structures appear in SMILES notation.

The experiment deals with T1, human TGR5 (Homo sapiens, UniProt Q8TDU6).
T1 construct: expressed in transfected cells
T1 sequence (Q8TDU6 1-330): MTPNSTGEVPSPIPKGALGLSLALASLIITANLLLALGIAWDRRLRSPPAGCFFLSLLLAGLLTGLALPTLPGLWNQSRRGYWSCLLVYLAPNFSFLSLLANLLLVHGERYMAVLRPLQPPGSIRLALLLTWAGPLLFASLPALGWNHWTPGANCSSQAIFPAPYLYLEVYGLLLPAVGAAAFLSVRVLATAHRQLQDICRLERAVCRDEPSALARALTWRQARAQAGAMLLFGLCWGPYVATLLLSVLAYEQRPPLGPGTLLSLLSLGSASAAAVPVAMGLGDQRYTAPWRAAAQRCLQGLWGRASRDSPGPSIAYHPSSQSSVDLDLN
Nature of the experiment: cAMP production assay in HEK293 cells stably expressing TGR5 (LANCE TR-FRET). Format: cell-based. Conditions: 30 minutes stimulation, read-out: cAMP Production in 293-TGR5 Cells EC50. Put shortly:
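HEK293 cells stably transfected with human TGR5, incubated overnight in DMEM with 0.1% FBS, then given IBMX (1 mM final) and stimulated with compounds for 30 minutes. cAMP measured by LANCE TR-FRET after 1-7 h detection at room temperature. EC50 values reported as ≦10 μM (+) or >10 μM (−).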
(Cyclic AMP is a second messenger, typically raised through Gs and lowered through Gi signalling.)

In general, EC50 refers to the concentration at which the effect is half-maximal. Regarding `O=c1c2ccc(C(F)(F)F)cc2nc(-c2ccccc2F)n1NCc1ccc(Cl)cc1` [Example 30, 3-(4-chlorobenzylamino)-2-(2-fluorophenyl)-7-(trifluoromethyl)quinazolin-4(3H)-one], the EC50 is more than 10 µM.

Regarding `O=c1c2ccccc2nc(-c2cccs2)n1NCc1ccc(Br)cc1` [Example 86, 3-(4-bromobenzylamino)-2-(thiophen-2-yl)quinazolin-4(3H)-one], the EC50 is not above 10 µM.

For the compound `O=c1c2ccccc2nc(-c2cccs2)n1N(Cc1ccc(C(F)(F)F)cc1)Cc1ccc(C(F)(F)F)cc1` [Example 88, 3-(bis(4-(trifluoromethyl)benzyl)amino)-2-(thiophen-2-yl)quinazolin-4(3H)-one], the EC50 is not above 10 µM.

Turning to `COc1cccc2c(=O)n(NCc3ccc(Cl)cc3)c(-c3ccc(F)cc3)nc12` [Example 77, 3-(4-Chloro-benzylamino)-2-(4-fluoro-phenyl)-8-methoxy-3H-quinazolin-4-one], the EC50 was not above 10 µM.

Regarding `COc1cccc2c(=O)n(NCc3ccc(Br)cc3)c(-c3ccc(F)cc3)nc12` [Example 76, 3-(4-Bromo-benzylamino)-2-(4-fluoro-phenyl)-8-methoxy-3H-quinazolin-4-one], the EC50 was not above 10 µM.

Turning to `O=c1c2ccccc2nc(-c2cccc(F)c2)n1NCc1ccc(F)c(C(F)(F)F)c1` [Example 107, 3-(4-fluoro-3-(trifluoromethyl)benzylamino)-2-(3-fluorophenyl)quinazolin-4(3H)— one], the EC50 is not above 10 µM.

In the case of `O=c1c2ccccc2nc(C2CCCCC2)n1NCc1ccc(Br)cc1` [Example 44, 3-(4-bromobenzylamino)-2-cyclohexylquinazolin-4(3H)-one], the EC50 was not above 10 µM.

Take `Cc1ccc(CNn2c(-c3ccccc3F)nc3ccccc3c2=O)cc1` [Example 22, 2-(2-fluorophenyl)-3-(4-methylbenzylamino)quinazolin-4(3H)-one]: the EC50 was not above 10 µM.

Take `O=c1c2ccccc2nc(-c2ccco2)n1N(Cc1ccc(Br)cc1)Cc1ccc(Br)cc1` [Example 41, 3-(bis(4-bromobenzyl)amino)-2-(furan-2-yl)quinazolin-4(3H)-one]: the half-maximal effective concentration (EC50) was not above 10 µM.

For the compound `COc1cc(-c2nc3ccccc3c(=O)n2NCc2ccc(F)c(F)c2)ccc1C` [Example 69, 3-(3,4-difluorobenzylamino)-2-(3-methoxy-4-methylphenyl)quinazolin-4(3H)-one], the EC50 is not above 10 µM.

As to `CN(Cc1ccc(Br)cc1)n1c(-c2ccc(F)cc2)nc2ccccc2c1=O` [Example 90, 3-((4-bromobenzyl)(methyl)amino)-2-(4-fluorophenyl)quinazolin-4(3H)-one], the EC50 is not above 10 µM.

As to `O=c1c2ccccc2nc(-c2ccccc2)n1NCc1ccc(Br)cc1` [Example 104, 3-(4-bromobenzylamino)-2-phenylquinazolin-4(3H)-one], the EC50 was not above 10 µM.

Take `COc1cc(OC)cc(-c2nc3ccccc3c(=O)n2NCc2ccc(Br)cc2)c1` [Example 58, 3-(4-bromobenzylamino)-2-(3,5-dimethoxyphenyl)quinazolin-4(3H)-one]: the EC50 is not above 10 µM.

Turning to `COc1cc(OC)cc(-c2nc3ccccc3c(=O)n2NCc2ccc(Cl)cc2)c1` [Example 59, 3-(4-chlorobenzylamino)-2-(3,5-dimethoxyphenyl)quinazolin-4(3H)-one], the EC50 is not above 10 µM.

In the case of `O=c1c2ccccc2nc(-c2ccccc2F)n1NCc1ccc(C(F)(F)F)cc1` [Example 17, 2-(2-fluorophenyl)-3-(4-(trifluoromethyl)benzylamino)quinazolin-4(3H)-one], the EC50 is not above 10 µM.

With `COc1ccc(-c2nc3ccccc3c(=O)n2NCc2ccc(Cl)cc2)cc1O` [Example 119, 3-(4-chlorobenzylamino)-2-(3-hydroxy-4-methoxyphenyl)quinazolin-4(3H)— one], the EC50 was not above 10 µM.

Regarding `O=c1c2ccccc2nc(-c2ccccc2F)n1NCc1ccc(F)c(F)c1` [Example 14, 3-(3,4-difluorobenzylamino)-2-(2-fluorophenyl)quinazolin-4(3H)-one], the EC50 was not above 10 µM.
